Results: US11026944B2, “Compositions and methods for treating insomnia” (Eisai R&D Management Co., Ltd., priority 2014, dated 2021)

Key:
[1] = tested on: subjects with primary insomnia; experiment: 001 Study Part B: next day KSS, DSST, PVT; type: in vivo, human; details: any dose of compound A (2.5, 10, 25 mg); zolpidem 10 mg
Excerpt: (§1) After the initial Screening visit, eligible subjects were scheduled to return to the clinic for 2 days during the Screening Period to conduct screening/baseline PSGs. These two days occurred at least 3 days after the initial Screening visit and within a window from Day-7 to Day-6 (±2 days). The first PSG was used to screen for sleep apnea and periodic limb movements in sleep (PLMS) and serve as the first baseline PSG. The second PSG was used as the second baseline PSG. Specific PSG variables were used to determine whether subjects met PSG inclusion criteria, and the average of PSG variables from these two PSGs was used as Baseline for this PD measure. Subjects who had met PSG inclusion criteria returned to the clinic on Day-1 for additional baseline procedures and randomization. Subjects were not allowed to nap on Day 1. On the evening of Day 1, after fasting a minimum of 3 hours, study drug was administered 30 minutes prior to the subject's habitual bedtime (lights-out), as calculated from the sleep diary for the first PSG during the Screening Period. PK blood samples were collected at prespecified timepoints, and PD assessments were performed. PSG was recorded on Day 1, postdose. Subjects were administered additional PD assessments each morning on Day 1 through Day 6. These assessments included the KSS, DSST, and PVT, in order to assess daytime sleepiness, level of alertness, and ability to concentrate. The KSS and DSST were also administered 5 minutes predose and 25 minutes postdose on Day 1, just prior to lights-out. Waketime Questionnaires were administered after the PD assessments within 15 minutes of lights-on, on Day 1 to Day 6. Time and duration of naps was recorded on Day 2.
Part B subjects were administered the KSS, DSST, and PVT within 15 minutes after lights-on specifically in that order, on each morning from Day 1 through Day 6, followed by the Waketime Questionnaire. The KSS and DSST were also administered 5 minutes predose and 25 minutes postdose on Day 1 (just prior to lights-out).

[2] = tested on: subjects with primary insomnia; experiment: 001 Study Part B: polysomnography (LPS, WASO, SE); type: in vivo, human; details: zolpidem 10 mg single evening dose
Excerpt: For Part B, 58 otherwise healthy subjects with primary insomnia were randomized across three cohorts, and stratified by gender. Part B also included an active control (zolpidem) and matching placebo. In each cohort, there were approximately 12 subjects in the compound A/zolpidem-matched placebo group, approximately four subjects in the zolpidem/compound A-matched placebo group, and approximately four subjects in the compound A-matched placebo/zolpidem-matched placebo group. Part B dosing occurred in the evening, 30 minutes prior to the sleep period. The starting dose for Part B was 3 dose levels that determined to be safe and well tolerated in Part A. Subsequent dose levels in Part B were determined based on the PD results of the first cohort in Part B and PD and safety results from at least 3 completed higher dose cohorts in Part A. Each cohort in Part B was divided into at least two groups, with dosing of each group staggered by a minimum of 2 days.
as §1
In addition, PSG was performed during the Screening Period at Days-7 and -6 (±2 days), and postdose on Day 1. An 8-hour diagnostic PSG consisting of electroencephalogram (EEG), electrooculogram (EOG), electromyogram (EMG), ECGs, leg electrodes, and measures of respiratory function (airflow, respiratory effort, and oxygen saturation) were performed starting at the subject's habitual bedtime as determined from the sleep diary for the 3 nights immediately prior to the first PSG on Day-7 (±2 days). PSG variables from this night were used to screen for sleep apnea and PLMS. On Day-6 (±2) and postdose on Day1, standard PSGs (i.e., not including leg electrodes or measures of respiratory function other than oxygen saturation) were performed. Specified PSG variables from these two PSGs conducted during the Screening Period were used to determine whether subjects met PSG inclusion criteria. The average of PSG variables from these two PSGs conducted during the Screening Period were used as baseline PSG values. The key PD parameters such as PSG LPS, TST, SE, and WASO have been obtained from all PSG recordings.

Cc1ccc(-c2nc3ccc(C)cn3c2CC(=O)N(C)C)cc1 [zolpidem, reference compound]
next day effects on KSS, DSST, or PVT [1]: no clinically significant next day effects
change from Baseline in SE [2]: 13%
